Reference: US10266609B2, “Immunomodulating beta-1,6-D-glucans” (Innate Biotherapeutics, LLC, priority 2014, dated 2019)
Also: key: a plus (+) sign indicates that the glucan was active in the assay; a minus (−) sign indicates that the glucan was not active; the '+/−' symbol indicates inconclusive results.

Each molecule was assayed on Anti-β-1,6-Glucan IgG antibodies (affinity purified from IVIG, Baxter) (assay: ELISA: binding of oligosaccharides to anti-β-1,6-glucan antibodies). Conditions: plate coated with oligosaccharide in PBS; 40 ug/mL anti-Beta 1,6 Glucan IgG; anti-human IgG-HRP, TMB, absorbance at 620 nm.
Experimental: Binding of oligosaccharides to anti-β-1,6-glucan antibodies is performed as described in the following protocol.
• 1. […] Anti-β-1,6-Glucan IgG antibodies (affinity purified from IVIG, Baxter) • 6. […] PBS-Tween buffer (PH 7.2, 0.05% Tween 20, Kpl cat #51-12-01) II. Method: Detection of Anti-Beta Glucan IgG by ELISA • 1. Coat plate with oligosaccharides in PBS overnight at 4° C. • 2. Wash 3 times with 250 uL of PBS-Tween • 3. Empty plate • 4. Block plate with 200 uL of Casein for 1 hour at room temperature • 5. Empty plate • 6. Add 40 ug/mL anti-Beta 1,6 Glucan IgG (4 ug/well) in Casein • 7. Incubate for 45 min at room temperature • 8. Wash 3 times with 250 uL of PBS-Tween • 9. Empty plate • 10. Add detection antibody: anti-human IgG-HRP at 1:5000—in casein. Incubate for 45 min at room temperature in the dark • 11. Wash 5 times with 250 uL of PBS-Tween • 12. Empty plate • 13. Add 100 uL of one step ultra TMB • 14. Measure the absorbance at 620 nm every 1 min for 60 min Tables 1-3 provide ELISA assay data for certain glucan compounds.
In the case of [N-]=[N+]=NCCOC1OC(COC2OC(COC3OC(COC4OC(COC5OC(COC6OC(COC7OC(COC8OC(CO)C(O)C(O)C8O)C(O)C(O)C7O)C(O)C(O)C6O)C(O)C(O)C5O)C(O)C(O)C4O)C(O)C(O)C3O)C(O)C(O)C2O)C(O)C(O)C1O (stereo not drawn) [α-O(CH2)2N3, n=8], the “ELISA assay data: glucan active in detection of anti-beta glucan IgG” value (“ELISA assay data: glucan active” for short) is reported as “+”. For N#C[C@H](O[C@@H]1O[C@H](CO[C@@H]2O[C@H](CO)[C@@H](O)[C@H](O)[C@H]2O)[C@@H](O)[C@H](O)[C@H]1O)c1ccccc1 [β-OCH(CN)Ph, n=2, amygdalin, reference compound], the “ELISA assay data: glucan active” value was “−”. With O=C(O)C1CCN(CC(O)[C@@H](O)[C@H](O)[C@H](O)CO[C@@H]2O[C@H](CO[C@@H]3O[C@H](CO[C@@H]4O[C@H](CO)[C@@H](O)[C@H](O)[C@H]4O)[C@@H](O)[C@H](O)[C@H]3O)[C@@H](O)[C@H](O)[C@H]2O)CC1 (mixture of isomers) [4-piperidineCO2H, n=3, N-[6-[(O-β-D-glucopyranosyl-(1,6))2-β-D-glucopyranosyl](2RS,3R,4R,5R)-2,3,4,5-tetrahydroxyhexyl]piperidine-4-carboxylic acid] the “ELISA assay data: glucan active” value was “+”. CN(Cc1ccc(C(=O)O)cc1)CC(O)[C@@H](O)[C@H](O)[C@H](O)CO[C@@H]1O[C@H](CO[C@@H]2O[C@H](CO[C@@H]3O[C@H](CO[C@@H]4O[C@H](CO[C@@H]5O[C@H](CO)[C@@H](O)[C@H](O)[C@H]5O)[C@@H](O)[C@H](O)[C@H]4O)[C@@H](O)[C@H](O)[C@H]3O)[C@@H](O)[C@H](O)[C@H]2O)[C@@H](O)[C@H](O)[C@H]1O (mixture of isomers) [N(Me),N(CH2)4-BzOH, n=5] was tested, and the “ELISA assay data: glucan active” value was “+”. CN(CCCCCN)CC(O)[C@@H](O)[C@H](O)[C@H](O)CO[C@@H]1O[C@H](CO[C@@H]2O[C@H](CO[C@@H]3O[C@H](CO[C@@H]4O[C@H](CO[C@@H]5O[C@H](CO[C@@H]6O[C@H](CO)[C@@H](O)[C@H](O)[C@H]6O)[C@@H](O)[C@H](O)[C@H]5O)[C@@H](O)[C@H](O)[C@H]4O)[C@@H](O)[C@H](O)[C@H]3O)[C@@H](O)[C@H](O)[C@H]2O)[C@@H](O)[C@H](O)[C@H]1O (mixture of isomers) [N(Me),N(CH2)5NH2, n=6] was tested, and the “ELISA assay data: glucan active” value was “+”. O=C(O)c1cc(OCc2cn(CCO[C@@H]3O[C@H](CO[C@@H]4O[C@H](CO[C@@H]5O[C@H](CO[C@@H]6O[C@H](CO)[C@@H](O)[C@H](O)[C@H]6O)[C@@H](O)[C@H](O)[C@H]5O)[C@@H](O)[C@H](O)[C@H]4O)[C@@H](O)[C@H](O)[C@H]3O)nn2)cc(OCc2cn(CCO[C@@H]3O[C@H](CO[C@@H]4O[C@H](CO[C@@H]5O[C@H](CO[C@@H]6O[C@H](CO)[C@@H](O)[C@H](O)[C@H]6O)[C@@H](O)[C@H](O)[C@H]5O)[C@@H](O)[C@H](O)[C@H]4O)[C@@H](O)[C@H](O)[C@H]3O)nn2)c1 [(β-D-glucopyanosy1-1,6)nβ-O(CH2)2-, n=4, 3,5-bis(1[2-[O-β-D-glucopyranosyl-(1→6)]4oxy]ethyl-1H-1,2,3-triazol-4-yl)methoxybenzoic acid] was tested, and the “ELISA assay data: glucan active” value was “+”. For OCC1OC(OCC2OC(OCC3OC(OCC4OC(OCC5OC(OCC6OC(OCC7OC(OCC8OC(OCC9OC(O)C(O)C(O)C9O)C(O)C(O)C8O)C(O)C(O)C7O)C(O)C(O)C6O)C(O)C(O)C5O)C(O)C(O)C4O)C(O)C(O)C3O)C(O)C(O)C2O)C(O)C(O)C1O (centres unmarked) [OH, n=9], the “ELISA assay data: glucan active” value was “+”. OC[C@H]1O[C@@H](OC[C@H]2O[C@@H](OC[C@H]3O[C@@H](OC[C@H]4O[C@@H](OC[C@H]5O[C@@H](OC[C@H]6OC(OCCCl)[C@H](O)[C@@H](O)[C@@H]6O)[C@H](O)[C@@H](O)[C@@H]5O)[C@H](O)[C@@H](O)[C@@H]4O)[C@H](O)[C@@H](O)[C@@H]3O)[C@H](O)[C@@H](O)[C@@H]2O)[C@H](O)[C@@H](O)[C@@H]1O (stereo partly drawn) [α-O(CH2)2Cl, n=6, 2-chloroethyl [O-β-D-glucopyranosyl-1,6]5-D-glucopyranoside] was tested, and the “ELISA assay data: glucan active” value was “+”. For O=C(O)c1cc(OCc2cn(CCO[C@H]3O[C@H](CO[C@@H]4O[C@H](CO[C@@H]5O[C@H](CO)[C@@H](O)[C@H](O)[C@H]5O)[C@@H](O)[C@H](O)[C@H]4O)[C@@H](O)[C@H](O)[C@H]3O)nn2)cc(OCc2cn(CCO[C@H]3O[C@H](CO[C@@H]4O[C@H](CO[C@@H]5O[C@H](CO)[C@@H](O)[C@H](O)[C@H]5O)[C@@H](O)[C@H](O)[C@H]4O)[C@@H](O)[C@H](O)[C@H]3O)nn2)c1 [(β-D-glucopyanosy1-1,6)nα-O(CH2)2-, n=3, 3,5-bis(1[2-[O-β-D-glucopyranosyl-(1→6)-O-β-D-glucopyranosyl-(1→6)-α-D-glucopyranosyl]oxy]ethyl-1H-1,2,3-triazol-4-yl)methoxybenzoic acid], the “ELISA assay data: glucan active” value was “+”. In the case of OC[C@H]1O[C@@H](OC[C@H]2O[C@@H](OC[C@H]3O[C@@H](OC[C@H]4O[C@@H](OC[C@H]5O[C@@H](OC[C@H]6O[C@@H](OC[C@H]7O[C@@H](OC[C@H]8O[C@@H](OC[C@H]9O[C@@H](OC[C@H]%10OC(O)[C@H](O)[C@@H](O)[C@@H]%10O)[C@H](O)[C@@H](O)[C@@H]9O)[C@H](O)[C@@H](O)[C@@H]8O)[C@H](O)[C@@H](O)[C@@H]7O)[C@H](O)[C@@H](O)[C@@H]6O)[C@H](O)[C@@H](O)[C@@H]5O)[C@H](O)[C@@H](O)[C@@H]4O)[C@H](O)[C@@H](O)[C@@H]3O)[C@H](O)[C@@H](O)[C@@H]2O)[C@H](O)[C@@H](O)[C@@H]1O (stereo partly drawn) [OH, n=10, [O-β-D-glucopyranosyl-1,6-]9-D-glucose], the “ELISA assay data: glucan active” value is reported as “+”. With “1-O-[2-(2-oxymethoxy)ethoxy]-6-O—[O-β-D-glucopyranosyl-(1,6)]3-β-D-glucopyranoside [β-O(CH2)2O(CH2)2C═O, n=4]” the “ELISA assay data: glucan active” value was “+”. With OC[C@H]1O[C@@H](OC[C@H]2O[C@@H](OC[C@H]3O[C@@H](OC[C@H]4OC(OCCCl)[C@H](O)[C@@H](O)[C@@H]4O)[C@H](O)[C@@H](O)[C@@H]3O)[C@H](O)[C@@H](O)[C@@H]2O)[C@H](O)[C@@H](O)[C@@H]1O (stereo partly drawn) [α-O(CH2)2Cl, n=4, 2-chloroethyl [O-β-D-glucopyranosyl-1,6]3-D-glucopyranoside] the “ELISA assay data: glucan active” value was “+”. In the case of OC[C@H]1O[C@@H](OC[C@H]2O[C@@H](OC[C@H]3O[C@@H](OC[C@H]4O[C@@H](OC[C@H]5O[C@@H](OC[C@H]6O[C@@H](OC[C@H]7O[C@@H](OC[C@H]8O[C@@H](OC[C@H]9OC(OCCCl)[C@H](O)[C@@H](O)[C@@H]9O)[C@H](O)[C@@H](O)[C@@H]8O)[C@H](O)[C@@H](O)[C@@H]7O)[C@H](O)[C@@H](O)[C@@H]6O)[C@H](O)[C@@H](O)[C@@H]5O)[C@H](O)[C@@H](O)[C@@H]4O)[C@H](O)[C@@H](O)[C@@H]3O)[C@H](O)[C@@H](O)[C@@H]2O)[C@H](O)[C@@H](O)[C@@H]1O (stereo partly drawn) [α-O(CH2)2Cl, n=9, 2-chloroethyl [O-β-D-glucopyranosyl-1,6]8-D-glucopyranoside], the “ELISA assay data: glucan active” value is reported as “+”. For OC[C@H]1O[C@@H](OC[C@H]2O[C@@H](OC[C@H]3OC(O)[C@H](O)[C@@H](O)[C@@H]3O)[C@H](O)[C@@H](O)[C@@H]2O)[C@H](O)[C@@H](O)[C@@H]1O (some centres unmarked) [OH, n=3], the “ELISA assay data: glucan active” value was “+”. For O=C(O)c1cc(OCc2cn(CCO[C@@H]3O[C@H](CO[C@@H]4O[C@H](CO[C@@H]5O[C@H](CO[C@@H]6O[C@H](CO[C@@H]7O[C@H](CO[C@@H]8O[C@H](CO)[C@@H](O)[C@H](O)[C@H]8O)[C@@H](O)[C@H](O)[C@H]7O)[C@@H](O)[C@H](O)[C@H]6O)[C@@H](O)[C@H](O)[C@H]5O)[C@@H](O)[C@H](O)[C@H]4O)[C@@H](O)[C@H](O)[C@H]3O)nn2)cc(OCc2cn(CCO[C@@H]3O[C@H](CO[C@@H]4O[C@H](CO[C@@H]5O[C@H](CO[C@@H]6O[C@H](CO[C@@H]7O[C@H](CO[C@@H]8O[C@H](CO)[C@@H](O)[C@H](O)[C@H]8O)[C@@H](O)[C@H](O)[C@H]7O)[C@@H](O)[C@H](O)[C@H]6O)[C@@H](O)[C@H](O)[C@H]5O)[C@@H](O)[C@H](O)[C@H]4O)[C@@H](O)[C@H](O)[C@H]3O)nn2)c1 [(β-D-glucopyanosy1-1,6)nβ-O(CH2)2-, n=6, 3,5-bis(1[2-[O-β-D-glucopyranosyl-(1→6)]6oxy]ethyl-1H-1,2,3-triazol-4-yl)methoxybenzoic acid], the “ELISA assay data: glucan active” value was “+”. With CN(CCCCCN)CC(O)[C@@H](O)[C@H](O)[C@H](O)CO[C@@H]1O[C@H](CO[C@@H]2O[C@H](CO[C@@H]3O[C@H](CO)[C@@H](O)[C@H](O)[C@H]3O)[C@@H](O)[C@H](O)[C@H]2O)[C@@H](O)[C@H](O)[C@H]1O (mixture of isomers) [N(Me),N(CH2)5NH2, n=3] the “ELISA assay data: glucan active” value was “+”. For [N-]=[N+]=NCCO[C@@H]1OC(CO[C@@H]2OC(CO[C@@H]3OC(CO[C@@H]4OC(CO[C@@H]5OC(CO[C@@H]6O[C@H](CO)[C@@H](O)[C@H](O)[C@H]6O)[C@@H](O)[C@H](O)[C@H]5O)[C@@H](O)[C@H](O)[C@H]4O)[C@@H](O)[C@H](O)[C@H]3O)[C@@H](O)[C@H](O)[C@H]2O)[C@@H](O)[C@H](O)[C@H]1O (stereo partly drawn) [β-O(CH2)2N3, n=6, 2-Azidoethyl [O-β-D-glucopyranosyl-1,6]5-β-D-glucopyranoside], the “ELISA assay data: glucan active” value was “+”.
